Data as given in BigSolDB 2.1.

Conditions: 298.2 K

O=C(c1ccccc1)c1ccc(O)cc1O
Conditions | solubility (mole fraction)
in 2-ethoxyethanol | 0.0308
in 2-isopropoxyethanol | 0.0333
in chlorobenzene | 0.0044
in cyclohexane | 5.07e-05
in diisopropyl ether | 0.00744
in ethylbenzene | 0.00408
in isooctane | 3.31e-05
in m-xylene | 0.00415
in methylcyclohexane | 6.92e-05
in n-butanol | 0.0109
in n-heptane | 3.82e-05
in n-heptanol | 0.018
in n-hexane | 3.26e-05
in n-hexanol | 0.0161
in n-octane | 4.43e-05
in n-octanol | 0.0183
in n-pentanol | 0.0125
in o-xylene | 0.00429
in p-xylene | 0.00448
in sec-butanol | 0.0103
in toluene | 0.00364
